From patent publication US5340591A, “Method of producing a solid dispersion of the sparingly water-soluble drug, nilvadipine” (Fujisawa Pharmaceutical Co., Ltd., priority 1992, dated 1994) come the findings set out here.

Each structure is given as a SMILES string. Values after ≈ are worked out from the molar mass of the structure shown.

A short description of the data set: Solubility of nilvadipine bulk substance. Format: physicochemical. Particulars: J.P.

A word on the solubility: it is the concentration that dissolves in the medium under given conditions. Read a low solubility as little dissolved substance.

The compound `COC(=O)C1=C(C#N)NC(C)=C(C(=O)OC(C)C)C1c1cccc([N+](=O)[O-])c1` (centres unmarked) [nilvadipine bulk substance, nilvadipine] showed a solubility (1st fluid) of 1.3 µg/mL (≈ 3.37 µM) and a solubility (2nd fluid) of 1 µg/mL (≈ 2.59 µM).
